According to patent US4451473A, “3,7-Diazabicyclo [3.3.1] nonanes having anti-arrhythmic activity” (Richter Gedeon Vegyeszeti Gyar Rt., priority 1981, dated 1984):
Where a name gives a salt, the structure may show the parent alone.

Legend:
[1] = system: disorders of cardiac rhythm provoked by aconitine in rats; type: in vivo; conditions: ED50 rat i.v. / LD50 mouse i.v.
Method: When examining the antiarrhythmic effects, rats were pre-treated intravenously with 1 mg/kg of aconitine to provoke disorders of cardiac rhythm [Med. Exp. (Basel) 10, 93 (1964)], thereafter the test compound was administered intravenously, and the dose required to restore the rhythm in 50% (ED50 mg/kg) was determined.

[2] = in vivo; conditions: mouse, iv
[3] = system: calcium antagonistic effect; experiment: Calcium antagonistic effect (pA2)

Structure (SMILES) | Therap. index (ED50/LD50) [1] | LD50 [2] [mg/kg] | calcium antagonistic effect (pA2) [3]
CCN1CC2CN(CC)CC(C1)C2OC(=O)c1ccc(Cl)cc1.Cl.Cl.O (stereo not shown) [3,7-diethyl-9-(4'-chloro-benzoyloxy)-3,7-diazabicyclo[3.3.1]nonane dihydrochloride monohydrate] | 0.036 | 11 | 
CN1CC2CN(C)CC(C1)C2OC(=O)C1c2ccccc2Oc2ccccc21 (stereo not shown) [3,7-dimethyl-9-(xanthene-9'-carbonyloxy)-3,7-diazabicyclo[3.3.1]nonane] | 0.019 | 14 | 
CCOc1ccc(C(=O)OC2C3CN(C)CC2CN(C)C3)cc1OC (stereo not shown) [3,7-Dimethyl-9-(3'-methoxy-4'-ethoxy-benzoyloxy)-3,7-diazabicyclo[3.3.1]nonane] | 0.074 | 13.5 | 
CCN1CC2CN(C)CC(C1)C2OC(=O)c1ccc(Cl)cc1 (stereo not drawn) [3-Methyl-7-ethyl-9α-(4'-chloro-benzoyloxy)-3,7-diazabicyclo[3.3.1]nonane dihydrochloride] |  |  | 4.33-4.6
CN1CC2CN(C)CC(C1)C2OC(=O)c1ccccc1 (stereo not shown) [3,7-Dimethyl-9-benzoyloxy-3,7-diazabicyclo[3.3.1]nonane] | 0.009 | 9 | 
CCN1CC2CN(C)CC(C1)C2OC(=O)c1ccc(Cl)cc1Cl (stereo not drawn) [3-Methyl-7-ethyl-9α-(2',4'-dichloro-benzoyloxy)-3,7-diazabicyclo[3.3.1]nonane dihydrochloride] | 0.055 | 20 | 
COc1ccc(CCN(C)CCCC(C#N)(c2ccc(OC)c(OC)c2)C(C)C)cc1OC (racemic) [Verapramil, reference compound] |  |  | 4.58-4.7
CN1CC2CN(C)CC(C1)C2OC(=O)c1ccc2ccccc2c1 (stereo not shown) [3,7-dimethyl-9-(2'-naphthoyloxy)-3,7-diazabicyclo[3.3.1]nonane] | 0.006 | 17 | 
CN1CC2CN(C)CC(C1)C2OC(c1ccccc1)c1ccccc1.O=C(O)/C=C/C(=O)O (stereo not shown) [3,7-Dimethyl-9-benzhydryloxy-3,7-diazabicyclo[3.3.1]nonane fumarate] | 0.057 | 21 | 
CN1CC2CN(C)CC(C1)C2Oc1ccccc1.O=C(O)/C=C/C(=O)O (stereo not shown) [3,7-dimethyl-9-phenoxy-3,7-diazabicyclo[3.3.1]nonane fumarate] | 0.029 | 39 | 
CCN1CC2CN(C)CC(C1)C2Oc1ccc(Cl)cc1 (stereo not drawn) [3-Methyl-7-ethyl-9α-(4'-chlorophenoxy)-3,7-diazabicyclo[3.3.1]nonanedihydrochloride] | 0.030 | 41 | 
CCCCN1CC2CN(CCCC)CC(C1)C2OC(=O)c1ccc(Cl)cc1 (stereo not shown) [3,7-di-n-butyl-9-(4'-chlorobenzoyloxy)-3,7-diazabicyclo[3.3.1]nonane] | 0.050 | 5 | 
CCN1CC2CN(C)CC(C1)C2Oc1ccccc1Cl (stereo not drawn) [3-Methyl-7-ethyl-9α-(2'-chlorophenoxy)-3,7-diazabicyclo[3.3.1]nonanedihydrochloride] | 0.041 | 28 | 
CN1CC2CN(C)CC(C1)C2Oc1ccc(Cl)cc1.O=C(O)/C=C/C(=O)O (stereo not shown) [3,7-Dimethyl-9-(4'-chlorophenoxy)-3,7-diazabicyclo[3.3.1]nonane fumarate] | 0.017 | 52 | 
CCN1CC2CN(C)CC(C1)C2OC(=O)c1ccc(-c2ccccc2)cc1 (stereo not drawn) [3-Methyl-7-ethyl-9α-(4'-phenyl-benzoyloxy)-3,7-diazabicyclo[3.3.1]nonane] | 0.061 | 19.5 | 
